We go through three compounds from US20190183950A1, “COMMENSAL FUNGI AND COMPONENTS THEREOF FOR USE IN MODULATING IMMUNE RESPONSES” (priority 2017, published 2019).

Experiment [1] concerns allergic airway inflammation. The experiment in a line: House dust mite airway reactivity and inflammation. The experiment is classed as in vivo, mouse. To be noted: colonized mice, colonization eradicated with fluconazole. As for the experimental part: Mice were anesthetized with ketamine/xylazine and hung by their front incisors on an angled stand. 100 μg house dust mite extract (Greer Laboratories) in 40 μL sterile saline was administered intratracheally. 10 days later, mice were challenged with the same amount of house dust mite extract. 48 hours after the second intratracheal challenge, airway resistance in response to inhaled methacholine (100 mg/mL) was measured using FlexiVent (SCIREQ). Saline perfused lungs were minced and digested with collagenase D (1 mg/mL) and DNAse (0.1 mg/mL) in DMEM media supplemented with 10% fetal bovine serum, 1% L-glutamine, 10 mM HEPES, 1% penicillin-streptomycin (Cellgro) for 30 minutes at 37° C. with gentle shaking (200 rpm). The tissue digest was then passed through a 70 μm filter to obtain single cell suspensions.

For experiment [2], the system named is C. albicans. Particulars: mouse, in vivo.
Another experiment relates to influenza A virus. The experiment is classed as in vivo, mouse.
Experiment [3] relates to DSS induced intestinal injury. The experiment in a line: DSS induced intestinal injury (survival, colon length, permeability, histology). The experiment is classed as in vivo, mouse. Particulars: for susceptibility to DSS (mortality): antibiotic treated mice, intrarectal administration every other day from one day prior to DSS.
Experiment [4] relates to C. albicans. To be noted: mouse, in vivo. The source holds these as a separate data set.
Experiment [5] concerns Th17 CD4+ T cells and circulating neutrophils. The experiment in a line: Systemic immune cell analysis (tetramer staining, cytokine production, IL-17RC, reactive oxygen) in colonized mice. Particulars: fluconazole treated colonized mice.
Source text: Fluorophore- or biotin-conjugated antibodies used mouse cell analysis are as follows: anti-CD4 (GK1.5, eBioscience), anti-CD8a (53-6.7, eBioscience), anti-CD11b (M1/70, Biolegend), anti-CD11c (N418, Biolegend), anti-F4/80 (BM8, eBioscience), anti-B220 (RA3-6B2, Biolegend), anti-CD44 (IM7, Biolegend), anti-CD45 (30F11, invitrogen), anti-Ly6G (1A8, BD bioscience), anti-Ly6C (HK1.4, Biolegend), anti-Gr1 (RB6-8C5, eBioscience), anti-IL-17RC (polyclonal IgG, R&D Systems), anti-FOXP3 (FJK-16S, eBioscience), anti-RORγt (Q31-378, BD bioscience), anti-T-bet (4B10, Biolegend), anti-IFN-γ (XMG1.2, eBioscience), anti-IL17A (TC 11-18H10.1, Biolegend), anti-IL17F (9D3.1C8, Biolegend). Fluorophore-conjugated antibodies were used for human cell analysis are as follows: anti-CD4 (OKT4, eBioscience), anti-CD15 (H198, invitrogen), anti-CD16 (3G8, Biolegend), anti-IL-17A (eBio64DEC17, eBioscience), anti-IL17F (O33-782, BD Bioscience), anti-IL17RC (309822, R&D Systems) with staining in the presence of Human Fc block (BD Bioscience). […] Single cell suspensions from spleen and peripheral lymph nodes were stained with APC conjugated I-Ab:2W1S55-68 tetramer at room temperature for 60 minutes, and enriched using anti-APC antibody conjugated magnetic beads (Militenyi Biotec) as described (Moon et al., Immunity 27:203-213 (2007)). Samples were acquired using an FACSCanto (BD) cytometer and analyzed using FlowJo software (Tree Star).
Experiment [6] relates to C. albicans. The experiment in a line: Depletion of intestinal C. albicans with fluconazole in antibiotic cocktail treated mice. The experiment is classed as in vivo, mouse. To be noted: C. albicans mono-colonized mice, 10 days after adding fluconazole to antibiotic-supplemented drinking water.
Another experiment relates to NF-κB. Briefly: RAW-Blue stimulation and quantification of NF-κB activity. The experiment is classed as cell-based, murine. To be noted: 500 μg/mL. As for the experimental part: RAW-Blue cells (InvivoGen) cells are derived from the murine RAW 264.7 macrophages with chromosomal integration of a secreted embryonic alkaline phosphatase reporter construct induced by NF-κB. 5×10^4 RAW-Blue cells were seeded 24 hours prior to addition of the indicated blocking antibody. One hour thereafter, mannan (Sigma) was added at a final concentration of 500 μg/mL. Supernatants were collected after 24 hours to quantify NF-κB activity by colorimetric assay using QUANTI-Blue reagent (InvivoGen).

Setting [7] is: antibiotic treated mice, intrarectal administration.

On to `OC(Cn1cncn1)(Cn1cncn1)c1ccc(F)cc1F` [fluconazole], for which, in experiment [1], the “accumulation of RORγt+ and IL-17 producing CD4+ T cells in the lungs” value is recorded as “efficiently overturned”; the airway responsiveness result is given as “efficiently overturned”. Further, the “C. albicans intestinal colonization” value in the experiment on C. albicans [2] was “efficiently eliminates C. albicans intestinal colonization”. Further, the “protection against influenza A” value in the experiment with influenza A virus (mouse, in vivo) is listed as “similarly overturned”. Moreover, the “survival and time-to-death after DSS challenge” value in experiment [3] (mouse, in vivo) was “efficiently abolished the improved survival and delayed time-to-death”. Also, in the experiment on C. albicans [4], the “fungal pathogen burden in the kidney after intravenous infection” value is on record as “significantly increased fungal pathogen burden in the kidney”. Moreover, in experiment [5], the “IL-17RC expression by circulating leukocyte and neutrophils” value was “similarly overturned”; the “RORγt expression by I-Ab:2W1S specific CD4+ T cells” value was “reduced to background levels”; the “expansion of circulating neutrophils” value is reported as “similarly overturned”; the “neutrophil production of reactive oxygen species” value is “similarly overturned”. Further, the “number of CD4+ T cells with commensal C. albicans I-Ab:2W1S specificity” value in experiment [5] is recorded as “reduced to background levels”. Also, the “IL-17A and IL-17F production by spleen and lymph node CD4+ T cells” value in experiment [5] (heat-killed C. albicans stimulation) is recorded as “similarly overturned”. Besides, the “recoverable fungi in the feces” value in the experiment with C. albicans [6] is given as “rapidly declined to undetectable levels”.
For the compound curdlan, in experiment [3], the “susceptibility to DSS (mortality)” value is reported as “failed to improve mortality”.
Consider mannan, for which the “survival and accumulation of protective immune cells” value in the experiment with influenza A virus (setting [7]) is “restored to levels comparable to C. albicans colonized controls”. For the same compound, the “susceptibility to influenza A virus infection” value in the experiment on influenza A virus (setting [7]) is “mitigated”. In experiment [3], the “susceptibility to DSS (mortality)” value is given as “mitigated”. For the same compound, the “mannan stimulated cell activation” value with NF-κB (with antibody blockade against TLR2), in the experiment on NF-κB (with antibody blockade against dectin-2) and with NF-κB (with antibody blockade against the mannose receptor) was “not significantly impacted” in each case. Besides, the “mannan induced NF-κB” value in the experiment on NF-κB (with neutralization of TLR4) and in the experiment on NF-κB (with neutralization of dectin-1) was “significantly reduced” in each case.
